Consider one compound from US20250281460A1, “PEGYLATED BILIRUBIN FOR THE TREATMENT OF […], OBESITY, FATTY LIVER DISEASE, CARDIOVASCULAR DISEASES AND TYPE II DIABETES” (The University of Toledo, priority 2019, published 2025).

Structures are written as SMILES. Entries after “also recorded” stand apart in the source; their conditions may differ.

The subject of one assay is 3T3-L1 cells. The assay can be described thus: Adipogenesis assay, lipid accumulation (Nile Red) in 3T3-L1 cells. The class given is cell-based, mouse. The conditions noted are these: over 9-day adipocytic differentiation. On the procedure: Whether bilirubin decreases adiposity by enhancing mitochondrial function was evaluated. It was previously shown that bilirubin reduces lipid accumulation in adipocytes. However, it remained to be determined if this occurs by activation of PPARα to reduce adiposity, selective actions on PPARγ, or is a dual PPAR agonist, which together may mediate its glucose- and lipid-lowering effects. First, to determine if bilirubin enhances genes for mitochondrial function, 3T3-L1 cells, a WAT-type murine pre-adipocyte cell line that differentiates to full adipocytes, were treated with increasing concentrations of biliverdin, which is more soluble and is rapidly produced to bilirubin, over the 9-day adipocytic differentiation protocol.

A further assay has as its system 3T3-L1-WAT adipocytes. The assay can be described thus: SeaHorse oxygen consumption rate in fully differentiated 3T3-L1-WAT adipocytes. The conditions noted are these: 50 μM biliverdin, 50 μM WY 14,463, 10 μM rosiglitazone. The class given is cell-based, mouse. On the procedure:
To compare the effects of bilirubin on the activation of PPARα or PPARγ on mitochondrial function, a SeaHorse XFe96 Analyzer was used to measure oxygen consumption rate (OCR) in fully differentiated 3T3-L1-WAT adipocytes treated with 50 μM biliverdin, 50 μM WY 14,463 (PPARα agonist), or 10 μM rosiglitazone (PPARγ-agonist). […]. Rosiglitazone, but not biliverdin or WY 14,643, enhanced the coupling efficiency. None of the ligands affected non-mitochondrial respiration, basal respiration, or proton leak.
(§1) Cellular respiration was quantified using the Seahorse Extracellular Flux Analyzer XF-96 (Agilent Technologies, Cedar Creek, TX). The Seahorse XF Cell Mito Stress Test Kit (Agilent Technologies, Cat #103015-100) was used for analysis of cellular respiration. BAT or 3T3-L1 cells were seeded on a XF96 cell culture microplate (Agilent 101085-004) at 20,000 cells per well. Cells were then differentiated as previously described for 9 days. […] The oxygen consumption rate (OCR) and extracellular acidification rate (ECAR) were used to quantify the cellular energy phenotype of the cells. After treatment, cells were washed twice with Seahorse Bioscience Assay Media (XF Base media with 25 mM Glucose, 2 mM […], and 1 mM Sodium Pyruvate) then incubated with the buffer for 1 hour in a non-CO2 incubator. The Seahorse Cartridge ports were loaded with […] of assay media with […] FCCP, 10 μM Oligomycin, 5 μM Rotenone/Antimycin A in different ports an hour before assay. […] The raw data and graphs were supplied as an Excel File or Graphpad Prizm file.

In a further assay the test system is 3T3-PPARγ2 cells. The assay can be described thus: SeaHorse mitochondrial respiration and gene activity in 3T3-PPARγ2 cells. The class given is cell-based, mouse. The following applies: 3T3-L1 cells overexpressing PPARγ2.
Source text: To investigate the specific role of bilirubin on PPARα or PPARγ as well as mitochondrial function and gene regulation, 3T3-LI cells that overexpressed each receptor (3T3-PPARα or 3T3-PPARγ2) were generated via lentivirus (FIGS. 2A-2B). […] The 3T3-Vector cells had no responses to biliverdin in FIGS. 2A-2B.
as §1

The next assay has as its system Adrb3 promoter. Kind of assay: Adrb3 promoter luciferase reporter in Cos7 cells with or without PPARα. The class given is cell-based, murine. As for the experimental part:
To determine if biliverdin/bilirubin is increasing Adrb3 in a PPARa-dependent manner, the proximal (−2816 to +118) and enhancer (−4770 to −4430) regions of the murine promoter in the pGL4.10 construct were cloned. The constructs were transfected with or without PPARα in receptorless Cos7 cells. The proximal promoter had no response with or without PPARα expressed in Cos7 cells (FIGS. 3D-3E). […] Therefore, various areas within the Adrb3 promoter were analyzed using the information from the luciferase promoter data and with analysis of several suspected PPREs in the promoter region.
An expression vector for Flag-Tagged PPARα was constructed as previously described. The cells were transfected with RXR-SG5 and either WT-Flag PPARα or with a Flag-Tagged PPARα plasmid with one of the following mutations: M330G, A333G, or T283G, in order to determine if binding of bilirubin at previously predicted positions would alter activity. Cells were also transfected with RXR-SG5 to enhance PPAR activity and the PPAR minimal reporter promoter plasmid (3Tk-Luc), whose activity was measured by luciferase, and pRL-CMV Renilla reporter for normalization to transfection efficiency. Transient transfection was achieved using GeneFect (Alkali Scientific, Inc.) during a 24-hour span.

In assay [1] the test system is BAT PPARα CRISPR KO cells. Kind of assay: Seahorse analysis in BAT PPARα CRISPR KO cells. The class given is cell-based, mouse. The following applies: both KO clones, 24 hours. From the text: To further delineate the actions of bilirubin on BAT, CRISPR technology was developed to knockout (KO) PPARα and establish two null clone lines. […]. The function of the ligands was lost in both clones for the BAT PPARα CRISPR KO cells.
CRISPR-Technology was employed in BAT as previously described to excise part of Exon 3 and Exon 4 of the PPARα gene to create a PPARα Knockout BAT cell line. Two sgRNAs with high efficacy and low off-target scores were identified on Exon 3 and 4 of the mouse PPARα gene using Benchling online software. The two Cas9 targets were separated by 9,465 bases. All of the off-targets to our PPARα sgRNA had 4 mismatches, of which at least 1-2 were within the seed region (up to 12 bases proximal to the protospacer adjacent motif (PAM) site) which reduces the likelihood of Cas9 off-target effects. The multiplex sgRNAs were generated using the PrecisionX Multiplex gRNA Cloning Kit according to manufacturer instructions. […] After 36 h of transfection, cells with the top 10% level of fluorescence were single-sorted into 96-well plates by fluorescent activated cell sorting. […]
Cellular respiration was quantified using the Seahorse Extracellular Flux Analyzer XF-96 (Agilent Technologies, Cedar Creek, TX). […] The oxygen consumption rate (OCR) and extracellular acidification rate (ECAR) were used to quantify the cellular energy phenotype of the cells. […]

The subject of another assay is BAT cells. Kind of assay: Lipid accumulation over differentiation of BAT cells. The conditions noted are these: increasing doses over the differentiation of the BAT cells.

Source text for BAT cells: Upon differentiation, cells were stained with Nile Red to visualize lipid content, and densitometry was used as a direct measure as previously described.

In the case of `C=CC1=C(C)/C(=C/C2=NC(=C\c3[nH]c(/C=C4\NC(=O)C(C)=C4C=C)c(C)c3CCC(=O)O)/C(CCC(=O)O)=C2C)NC1=O` [biliverdin], the lipid accumulation result with 3T3-L1 cells (1 μM) is “did not reduce”; with 3T3-L1 cells (10 μM) it was “significantly reduced”; with 3T3-L1 cells (50 μM) it was “significantly reduced”; in the assay on 3T3-L1 cells (50 μM, listed as Biliverdin) it was “significantly reduced; also recorded: substantially decreased”; with BAT cells, “no impact”. Also, the ATP production entry in the assay on 3T3-L1-WAT adipocytes was “significantly elevated”. Besides, the “mitochondrial OCR for maximum respiration” value in the assay on 3T3-L1-WAT adipocytes is given as “significantly increased”. Moreover, the gene related activity entry with 3T3-PPARγ2 cells was “did not have significant increase”. Further, in the assay with 3T3-PPARγ2 cells, the mitochondrial respiration result is on record as “no significant changes”. For the same compound, the “luciferase activity, enhancer region with mutated PPREs” value with Adrb3 promoter (mutations in each PPRE separately) is given as “no induction”. Besides, in the assay with Adrb3 promoter (with PPARα overexpression), the “luciferase activity, enhancer (−4770 to −4430) region” value was “significantly higher”. For the same compound, the “luciferase activity, proximal (−2816 to +118) promoter” value in the assay with Adrb3 promoter (with or without PPARα expressed in Cos7 cells) is recorded as “no response”. Also, in assay [1], the “function of the ligands on mitochondrial function (OCR)” value is listed as “lost”.
